Experiments:
[1] = test system: ampC mRNA in 109-E9 (CAZ/AVI-sensitive ST175 clinical isolate); test: qRT-PCR quantification of AmpC induction; type: cell-based, P. aeruginosa; settings: IPM 8, FOX 64, AVI 16 µg/mL, relative to strain basal t=0
Protocol: (§1) Samples were taken at 0, 30 and 180 min. Total RNA was extracted with the RNeasy Mini Kit (Qiagen, Hilden, Germany) and treated with TURBO DNase (Thermo Fisher Scientific, Waltham, MA, USA) to remove contaminating DNA. Samples were afterwards normalized to 50 ng/µL.
(§2) Normalized samples were then used for one-step reverse transcription and real-time PCR amplification using the QuantiTect SYBR green qRT-PCR kit (Qiagen, Hilden, Germany) in a CFX Connect Real-Time PCR System (Bio-Rad, Hercules, California, USA). Previously described primer pairs ACrnaF/ACrnaR and rpsL-1/rpsL-2 were used for the amplification of ampC and housekeeping gene rpsL, respectively. The mean values of relative mRNA expression (2^−ΔΔCt) obtained from at least two independent biological replicates and duplicate technical replicates were considered.

[2] = test system: ampC mRNA in 110-G8 (AmpC DelG229–E247; PDC-223, CAZ/AVI-resistant ST175 clinical isolate); test: qRT-PCR quantification of AmpC induction; type: cell-based, P. aeruginosa; settings: IPM 8, FOX 64, AVI 16 µg/mL, relative to strain basal t=0
Protocol: as §1, §2

[3] = test system: ampC mRNA in 103-H8 (AmpC E247K; PDC-221, CAZ/AVI-resistant ST175 clinical isolate); test: qRT-PCR quantification of AmpC induction; type: cell-based, P. aeruginosa; settings: IPM 8, FOX 64, AVI 16 µg/mL, relative to strain basal t=0
Protocol: as §1, §2

[4] = test system: ampC mRNA in PAΔdacB (PBP4 knockout mutant); test: qRT-PCR quantification of AmpC induction; type: cell-based, P. aeruginosa; settings: 180 min; IPM 8, FOX 64 µg/mL
Protocol: as §1, §2

[5] = test system: ampC mRNA in 101-E5 (CAZ/AVI-sensitive ST175 clinical isolate); test: qRT-PCR quantification of AmpC induction; type: cell-based, P. aeruginosa; settings: IPM 8, FOX 64, AVI 16 µg/mL, relative to strain basal t=0
Protocol: as §1, §2

[6] = test system: ampC mRNA in wild-type PAO1; test: qRT-PCR quantification of AmpC induction; type: cell-based, P. aeruginosa; settings: IPM 8, FOX 64, AVI 16 µg/mL, relative to strain basal t=0
Protocol: as §1, §2

PBP3 = biological target: T1, PBP3 (Pseudomonas aeruginosa, UniProt G3XD46); test: biochemical; type: binding, P. aeruginosa PAO1; settings: PAO1 membranes 0.5 mg/mL, 30 min, 25 µM bocillin FL; read-out: Mean IC50 ± SD, PBP 3 (converted)
T1 construct: PBP-containing membranes were isolated by ultracentrifugation; endogenous in cells; host or cells: P. aeruginosa PAO1 wild type (membrane preparations or intact cells)
T1 sequence (G3XD46 whole entry): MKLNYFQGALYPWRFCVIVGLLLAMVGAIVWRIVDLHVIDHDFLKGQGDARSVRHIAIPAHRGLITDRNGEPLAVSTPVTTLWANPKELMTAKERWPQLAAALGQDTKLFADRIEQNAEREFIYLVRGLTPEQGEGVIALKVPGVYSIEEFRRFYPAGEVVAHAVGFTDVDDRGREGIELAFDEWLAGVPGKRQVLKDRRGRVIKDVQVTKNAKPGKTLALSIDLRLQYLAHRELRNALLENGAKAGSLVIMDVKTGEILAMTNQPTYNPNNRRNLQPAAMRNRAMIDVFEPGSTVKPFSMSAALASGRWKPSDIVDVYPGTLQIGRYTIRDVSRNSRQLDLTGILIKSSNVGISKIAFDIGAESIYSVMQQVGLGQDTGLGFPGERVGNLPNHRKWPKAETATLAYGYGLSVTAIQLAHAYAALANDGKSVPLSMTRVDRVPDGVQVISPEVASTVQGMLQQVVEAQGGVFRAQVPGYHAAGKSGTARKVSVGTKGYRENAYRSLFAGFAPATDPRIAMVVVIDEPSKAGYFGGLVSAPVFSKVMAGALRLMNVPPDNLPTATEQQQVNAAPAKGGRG
Protocol: (§3) PBP-binding affinity was determined using previously described methods. Briefly, P. aeruginosa PAO1 cultures grown to the midexponential phase (7.6 log10 CFU/mL) were incubated in CAMHB at 37 °C and 180 rpm, washed and centrifuged (3220× g for 10 min at 4 °C). Bacterial pellets were washed in 30 mL of PBS buffer (pH 7.5), resuspended in 10 mL of PBS and sonicated at 40% amplitude for three 2 min bursts (while immersed in an ice bath) and centrifuged at 3220× g for 15 min at 4 °C. PBP-containing membranes were isolated by ultracentrifugation at 150,000× g for 30 min at 4 °C. Total protein concentrations were measured through the Bradford method.
(§4) Subsequently, the fluorescent penicillin bocillin FL was added to a 25 μM final concentration. Labeled PBPs were denatured and separated through 4–15% SDS–polyacrylamide gel electrophoresis. Labeled PBPs were visualized using a Typhoon FLA 9500 biomolecular imager (GE Healthcare Bio-Sciences AB, Uppsala, Sweden) (excitation at 488 nm and emission at 530 nm), and binding was determined from at least three independent experiments using ImageQuant TL software v8.1.0.0 (GE Healthcare Bio-Sciences AB, Uppsala, Sweden).

PBP4 = PBP4 (Pseudomonas aeruginosa, UniProt Q9HZG1); test: PBP-binding affinity (IC50), bocillin FL, isolated membranes; set-up: species or system P. aeruginosa PAO1; settings: PAO1 membranes 0.5 mg/mL, 30 min, 25 µM bocillin FL; read-out: Mean IC50 ± SD, PBP 4 (converted)
Chain of PBP4 (Q9HZG1 entry or part of it): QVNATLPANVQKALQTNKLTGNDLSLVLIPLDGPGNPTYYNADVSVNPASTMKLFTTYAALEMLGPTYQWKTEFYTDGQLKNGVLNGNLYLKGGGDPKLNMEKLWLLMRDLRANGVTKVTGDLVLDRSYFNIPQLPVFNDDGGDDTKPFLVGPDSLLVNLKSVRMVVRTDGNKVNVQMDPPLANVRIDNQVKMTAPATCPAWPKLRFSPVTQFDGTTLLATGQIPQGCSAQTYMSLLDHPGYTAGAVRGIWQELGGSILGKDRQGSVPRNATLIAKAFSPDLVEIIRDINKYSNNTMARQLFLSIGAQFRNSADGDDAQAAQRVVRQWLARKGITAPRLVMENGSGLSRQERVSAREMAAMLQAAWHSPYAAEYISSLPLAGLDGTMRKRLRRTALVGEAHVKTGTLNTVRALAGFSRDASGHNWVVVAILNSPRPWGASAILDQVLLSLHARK
Protocol: as §3, §4

PBP1a = biological target: T2, PBP1a (Pseudomonas aeruginosa, UniProt Q07806); test: as above; set-up: species or system P. aeruginosa PAO1; settings: PAO1 membranes 0.5 mg/mL, 30 min, 25 µM bocillin FL; read-out: Mean IC50 ± SD, PBP 1a (converted)
T2 construct: PBP-containing membranes were isolated by ultracentrifugation; endogenous in cells; host or cells: P. aeruginosa PAO1 wild type (membrane preparations or intact cells)
T2 sequence (Q07806 whole entry): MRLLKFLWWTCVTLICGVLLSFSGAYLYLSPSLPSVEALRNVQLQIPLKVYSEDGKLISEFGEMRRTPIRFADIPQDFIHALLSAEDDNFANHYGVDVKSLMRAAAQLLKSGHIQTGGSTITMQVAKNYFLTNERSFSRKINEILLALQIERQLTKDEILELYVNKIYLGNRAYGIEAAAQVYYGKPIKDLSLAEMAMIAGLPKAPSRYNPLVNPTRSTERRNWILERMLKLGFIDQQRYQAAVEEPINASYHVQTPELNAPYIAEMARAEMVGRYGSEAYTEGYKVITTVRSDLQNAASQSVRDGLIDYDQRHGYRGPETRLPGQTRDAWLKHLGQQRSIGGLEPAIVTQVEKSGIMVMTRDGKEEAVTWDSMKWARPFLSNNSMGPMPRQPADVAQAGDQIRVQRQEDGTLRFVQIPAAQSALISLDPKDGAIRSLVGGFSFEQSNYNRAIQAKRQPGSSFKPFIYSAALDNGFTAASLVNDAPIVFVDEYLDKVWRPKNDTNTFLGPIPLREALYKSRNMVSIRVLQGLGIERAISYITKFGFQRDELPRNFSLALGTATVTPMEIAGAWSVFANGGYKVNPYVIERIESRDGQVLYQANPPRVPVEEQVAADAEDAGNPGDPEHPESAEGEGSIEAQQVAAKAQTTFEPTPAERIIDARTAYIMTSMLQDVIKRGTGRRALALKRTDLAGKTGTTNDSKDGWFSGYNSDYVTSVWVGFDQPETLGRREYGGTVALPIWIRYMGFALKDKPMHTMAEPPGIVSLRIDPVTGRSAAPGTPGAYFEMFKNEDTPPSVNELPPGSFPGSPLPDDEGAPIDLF
Protocol: as §3, §4

PBP5/6 = PBP5/6 (Pseudomonas aeruginosa, UniProt G3XD74); test: as above; set-up: species or system P. aeruginosa PAO1; settings: PAO1 membranes 0.5 mg/mL, 30 min, 25 µM bocillin FL; read-out: Mean IC50 ± SD, PBP 5/6 (converted)
Chain of PBP5/6 (G3XD74 entry or part of it): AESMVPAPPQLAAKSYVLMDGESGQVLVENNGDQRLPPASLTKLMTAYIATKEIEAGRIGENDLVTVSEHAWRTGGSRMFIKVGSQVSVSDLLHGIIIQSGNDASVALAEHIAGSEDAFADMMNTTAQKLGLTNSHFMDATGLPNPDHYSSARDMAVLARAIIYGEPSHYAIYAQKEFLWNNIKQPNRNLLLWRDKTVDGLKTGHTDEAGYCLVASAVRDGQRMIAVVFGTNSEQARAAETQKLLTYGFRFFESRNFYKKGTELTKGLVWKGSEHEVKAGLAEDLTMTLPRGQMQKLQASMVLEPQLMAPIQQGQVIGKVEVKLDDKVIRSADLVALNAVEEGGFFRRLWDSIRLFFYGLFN
Protocol: as §3, §4

PBP1b = PBP1b (Pseudomonas aeruginosa, UniProt G3XD31); test: as above; set-up: species or system P. aeruginosa PAO1; settings: PAO1 membranes 0.5 mg/mL, 30 min, 25 µM bocillin FL
Chain of PBP1b (G3XD31 entry or part of it): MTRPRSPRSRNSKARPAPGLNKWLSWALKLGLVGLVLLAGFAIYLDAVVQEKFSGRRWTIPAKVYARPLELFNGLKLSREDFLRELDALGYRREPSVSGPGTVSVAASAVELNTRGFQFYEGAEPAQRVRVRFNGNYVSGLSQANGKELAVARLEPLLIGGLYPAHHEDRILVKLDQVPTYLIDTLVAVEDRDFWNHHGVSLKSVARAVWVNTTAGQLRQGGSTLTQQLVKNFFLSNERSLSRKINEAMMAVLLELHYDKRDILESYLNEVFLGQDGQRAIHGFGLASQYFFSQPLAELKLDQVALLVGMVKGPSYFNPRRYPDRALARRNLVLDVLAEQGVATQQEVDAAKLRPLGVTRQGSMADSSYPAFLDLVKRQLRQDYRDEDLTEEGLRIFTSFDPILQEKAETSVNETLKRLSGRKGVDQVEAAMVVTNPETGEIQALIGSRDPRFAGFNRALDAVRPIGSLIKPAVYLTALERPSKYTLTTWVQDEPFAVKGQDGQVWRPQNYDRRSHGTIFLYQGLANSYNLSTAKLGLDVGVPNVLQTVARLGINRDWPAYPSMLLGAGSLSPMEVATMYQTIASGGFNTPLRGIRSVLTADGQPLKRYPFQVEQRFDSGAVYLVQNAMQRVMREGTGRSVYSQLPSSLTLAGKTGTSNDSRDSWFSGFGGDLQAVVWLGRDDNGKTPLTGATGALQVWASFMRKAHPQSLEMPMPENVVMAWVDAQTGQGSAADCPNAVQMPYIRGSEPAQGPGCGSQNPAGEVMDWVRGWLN
Protocol: as §3, §4

PBP2 = biological target: T3, PBP2 (Pseudomonas aeruginosa, UniProt Q9X6V3); test: as above; set-up: species or system P. aeruginosa PAO1; settings: PAO1 membranes 0.5 mg/mL, 30 min, 25 µM bocillin FL; read-out: Mean IC50 ± SD, PBP 2 (converted)
T3 construct: PBP-containing membranes were isolated by ultracentrifugation; endogenous in cells; host or cells: P. aeruginosa PAO1 wild type (membrane preparations or intact cells)
T3 sequence (Q9X6V3 entry or part of it): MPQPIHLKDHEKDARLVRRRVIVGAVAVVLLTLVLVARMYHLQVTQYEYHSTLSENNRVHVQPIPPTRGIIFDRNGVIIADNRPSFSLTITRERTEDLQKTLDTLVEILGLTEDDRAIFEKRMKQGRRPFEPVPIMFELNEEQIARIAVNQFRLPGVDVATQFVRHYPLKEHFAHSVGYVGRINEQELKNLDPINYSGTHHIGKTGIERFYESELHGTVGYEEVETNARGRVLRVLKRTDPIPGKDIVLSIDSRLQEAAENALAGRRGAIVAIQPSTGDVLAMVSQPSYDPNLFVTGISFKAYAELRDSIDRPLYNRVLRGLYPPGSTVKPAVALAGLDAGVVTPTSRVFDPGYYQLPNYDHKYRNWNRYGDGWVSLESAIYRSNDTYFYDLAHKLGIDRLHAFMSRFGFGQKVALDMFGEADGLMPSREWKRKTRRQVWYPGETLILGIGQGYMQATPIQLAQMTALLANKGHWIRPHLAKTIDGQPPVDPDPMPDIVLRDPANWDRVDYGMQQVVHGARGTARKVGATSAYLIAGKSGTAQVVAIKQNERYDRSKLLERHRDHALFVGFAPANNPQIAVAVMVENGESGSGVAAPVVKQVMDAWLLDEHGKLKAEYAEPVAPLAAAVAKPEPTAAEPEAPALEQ
Protocol: as §3, §4

SMILES: CO[C@@]1(NC(=O)Cc2cccs2)C(=O)N2C(C(=O)O)=C(COC(N)=O)CS[C@@H]21 [Cefoxitin]
- Relative ampC expression ([1]; 109-E9, 0 min): 0.9
- Relative ampC expression ([1]; 109-E9, 30 min): 4.1
- Relative ampC expression ([1]; 109-E9, 180 min): 8.8 ± 7.9
- Relative ampC expression ([1]; 109-E9, 180 min, listed as FOX): 8.8
- Relative ampC expression ([2]; 110-G8, 0 min): 3.3
- Relative ampC expression ([2]; 110-G8, 30 min): 51.8 ± 13.2
- Relative ampC expression ([2]; 110-G8, 30 min, listed as FOX): 51.8
- Relative ampC expression ([2]; 110-G8, 180 min): 29.2 ± 13.1
- Relative ampC expression ([2]; 110-G8, 180 min, listed as FOX): 29.2
- Relative ampC expression ([3]; 103-H8, 0 min): 1.4
- Relative ampC expression ([3]; 103-H8, 30 min): 14.0
- Relative ampC expression ([3]; 103-H8, 180 min): 50 ± 36.5
- Relative ampC expression ([3]; 103-H8, 180 min, listed as FOX): 50.0
- ampC inducibility of PBP4 (dacB) mutant, fold lower than parental strain PAO1 [4]: 32 fold
- Relative ampC expression ([5]; 101-E5, 0 min): 3.7
- Relative ampC expression ([5]; 101-E5, 30 min): 1.7
- Relative ampC expression ([5]; 101-E5, 180 min): 5.7 ± 2.8
- Relative ampC expression ([5]; 101-E5, 180 min, listed as FOX): 5.7
- Relative ampC expression ([6]; PAO1, 0 min): 0.9
- Relative ampC expression ([6]; PAO1, 30 min): 3100
- Relative ampC expression ([6]; PAO1, 180 min): 2500
- IC50 (PBP3): 25 µM
- IC50 (PBP4): 3.51 µM
- IC50 (PBP1a): 18.2 µM
- IC50 (PBP5/6): 21.1 µM
- Mean IC50 ± SD, PBP 1b (PBP1b): no PBP1b binding was detected
- IC50 (PBP1b; read-out: Mean IC50 ± SD, PBP 1b (converted)): > 74.9 µM
- IC50 (PBP2): 34.2 µM

SMILES: C[C@@H](O)[C@H]1C(=O)N2C(C(=O)O)=C(SCCN=CN)C[C@H]12 [Imipenem]
- IC50 (PBP1a): < 0.835 µM
- IC50 (PBP5/6): 1.67 µM
- IC50 (PBP2): < 0.835 µM

— paper PMC8002452, “Molecular Basis of AmpC β-Lactamase Induction by Avibactam in Pseudomonas aeruginosa: PBP Occupancy, Live Cell Binding Dynamics and Impact on Resistant Clinical Isolates Harboring PDC-X Variants” (International Journal of Molecular Sciences, 2021)
